Experimental data taken from US9056835B2, “LPA2 receptor-specific benzoic acid derivatives” (University of Tennessee Research Foundation, priority 2012, dated 2015).

Tested on: vector- and LPA2-transduced MEF cells
Experiment: Cell proliferation assay
Assay type: cell-based, mouse
Details: LPA 1 μM, OTP 1 μM, GRI977143 10 μM; for cell growth: LPA2-transduced MEF; for cell proliferation: vector-transduced MEF
Procedure: Mouse embryonic fibroblast (MEF) cells were isolated from E13.5 LPA1&2 double knockout (DKO) embryos. MEFs were transduced with empty vector or LPA2-containing lentiviruses and selected with 1.5 μg/ml puromycin. Cells were maintained in Dulbecco's modified Eagle medium (DMEM) supplemented with 10% (V/V) fetal bovine serum (FBS), 2 mM L-glutamine, 100 U/mL penicillin, and 100 μg/mL streptomycin. Serum-free medium contained 0.1% (W/V) BSA in DMEM. The rat intestinal epithelial cell line 6 (IEC-6) was obtained from the American Type Culture Collection (Rockville, Md.) at passage 13; passages 16-21 were used in all experiments. IEC-6 cells were maintained in a humidified 37° C. incubator in an atmosphere of 90% air and 10% CO2. Growth medium consisted of DMEM supplemented with 5% heat inactivated FBS, 10 μg/mL insulin, and 50 μg/mL gentamycin. The composition of the serum-starvation medium was the same as that of the full growth medium except that it contained no FBS. The McArdle rat hepatoma cell line (RH7777) stably expressing LPA2 receptors was a gift from Dr. Fumikazu Okajima (Gunma University, Maebashi, Japan). RH7777 cells stably expressing LPA1 or LPA3 receptors were generated in-house and had been characterized earlier. Wild type and LPA receptor (LPAR) stably transfected RH7777 cells were grown in DMEM supplemented with 10% FBS and 2 mM L-glutamine in the presence of 250 μg/ml G418. Chinese hamster ovary (CHO) cells stably expressing either vector or LPA4 receptor were a kind gift from Dr. Takao Shimizu (Tokyo University; Tokyo, Japan). Cells were cultured in Ham's F12 medium containing 10% FBS, 2 mM L-glutamine, and 350 μg/ml G418. Rat neuroblastoma cells (B103) were transduced with the lentivirus harboring wild type of FLAG-LPA5 and selected with puromycin to establish the stable cell lines. The stable cells were maintained in DMEM supplemented with 10% FBS and 0.4 μg/ml puromycin. GPR87- and P2Y10-expressing CHO cells and vector-transfected control cells were a gift from Dr. Norihisha Fujita (Ritsumeikan University; Shiga, Japan). The highly invasive MM1 rat hepatoma cells (gift from Dr. Michiko Mukai, Osaka University, Japan) were grown in suspension in DMEM supplemented with 10% (V/V) FBS, 2 mM L-glutamine, 100 U/mL penicillin, and 100 μg/mL streptomycin. Human umbilical vein endothelial cells (HUVEC) were purchased from VEC Technologies Inc. (Rensselaer, N.Y., USA) and cultured in MCDB-131 complete medium supplemented with 10% (V/V) FBS, 90 μg/mL heparin, 10 ng/mL EGF, 1 μg/mL hydrocortisone, 0.2 mg/mL EndoGrowth (VEC Technologies Inc.) supplement, 100 U/mL penicillin G, 100 μg/mL streptomycin, and 25 μg/mL amphotericin B.
For determination of the effect of the LPA receptor ligands on cell growth, vector- and LPA2-transduced MEF cells (2×10^4) were plated in each well of a 24-well plate in full growth medium. Cells were counted the next day and the medium was replaced with medium containing 1.5% (V/V) FBS supplemented with or without 1 μM LPA, 1 μM OTP, or 10 μM GRI977143. Media containing LPA, OTP, and GRI977143 were refreshed every 24 h. The growth rate was measured by counting the number of cells in triplicate using the Z1 Coulter Particle Counter (Beckman Coulter; Hileah, Fla.) as a function of time.

Row | Molecule | cell growth | cell proliferation
1 | O=C(O)c1ccccc1SCCCN1C(=O)c2cccc3cccc(c23)C1=O [GRI977143] | significant from 24 hours onwards | did not cause a significant increase in vector cell proliferation except at 72 hours
2 | CCCCCCCC/C=C\CCCCCCCC(=O)OC[C@@H](O)COP(=O)(O)O [LPA 18:1, Lysophosphatidic acid (18:1)] | significant from 24 hours onwards | no significant effect
3 | octadecenyl thiophosphate [OTP] | significant from 24 hours onwards | significantly (p<0.001) increased
